From US20230339878A1, “SLC26A3 INHIBITORS AND USE THEREOF” (THE REGENTS OF THE UNIVERSITY OF CALIFORNIA, priority 2018, published 2023)
Entries after “also recorded” stand apart in the source; their conditions may differ.

Columns and labels:
[1] = target: T1, pendrin (slc26a4) (Mus musculus, UniProt Q9R155); test: Selectivity: pendrin-mediated Cl-/I- exchange, YFP assay; format: cell-based, murine; conditions: 10 µM
T1 construct: expressed in transfected cells; host or cells: FRT cells expressing YFP and slc26a4
T1 sequence (Q9R155 1-780): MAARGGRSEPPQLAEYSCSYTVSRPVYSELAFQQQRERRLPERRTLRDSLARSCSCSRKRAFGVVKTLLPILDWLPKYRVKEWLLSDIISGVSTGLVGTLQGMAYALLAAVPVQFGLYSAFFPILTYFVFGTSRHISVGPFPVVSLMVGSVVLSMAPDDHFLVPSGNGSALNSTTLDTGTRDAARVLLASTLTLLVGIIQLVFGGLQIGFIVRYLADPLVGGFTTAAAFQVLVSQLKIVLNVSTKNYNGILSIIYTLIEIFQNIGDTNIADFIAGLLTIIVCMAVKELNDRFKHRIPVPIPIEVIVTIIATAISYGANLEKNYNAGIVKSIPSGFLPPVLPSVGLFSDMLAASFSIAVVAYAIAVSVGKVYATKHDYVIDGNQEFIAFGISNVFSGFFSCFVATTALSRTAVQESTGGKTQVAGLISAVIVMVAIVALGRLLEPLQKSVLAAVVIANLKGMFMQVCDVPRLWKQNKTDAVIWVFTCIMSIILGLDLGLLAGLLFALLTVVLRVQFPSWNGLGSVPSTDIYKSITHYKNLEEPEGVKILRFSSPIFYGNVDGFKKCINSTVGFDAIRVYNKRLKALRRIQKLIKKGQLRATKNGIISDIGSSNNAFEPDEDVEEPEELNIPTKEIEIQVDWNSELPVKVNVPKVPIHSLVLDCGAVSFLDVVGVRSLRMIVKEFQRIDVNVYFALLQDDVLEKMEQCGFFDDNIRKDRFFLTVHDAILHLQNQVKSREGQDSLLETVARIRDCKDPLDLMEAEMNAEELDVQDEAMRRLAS
Description: To investigate Compound A1 selectivity, transport assays were done on a panel of SLC26-family homologs, and other relevant epithelial ion transporters and channels. […] In separate studies, to investigate possible action of Compound A1 on multiple ion transporters and channels in a human epithelium, human bronchial epithelial (HBE) cells were studied by short-circuit current, with successive additions of amiloride (to block the epithelial sodium channel ENaC), forskolin, CFTRinh-172 (to block CFTR), and ATP (to activate the Ca^2+-activated chloride channel, CaCC) (FIG. 5C).
YFP-based assays of CFTR, pendrin and TMEM16A were as described. HEK cells transfected to express YFP and SLC26A3, slc26a6 or slc26a9 were functionally assayed using a Cl^-/I^- exchange protocol. Assays of Cl^-/HCO3^- exchange were done using BCECF as an intracellular pH indicator as described for pendrin. […]
HEK293 cells transfected with pIRES-YFP-slc26a9 were plated in 96-well black-walled, clear-bottom tissue culture plates (Corning Life Sciences, Tewksbury, MA) after coating with FNC Coating Mix (AthenaES, Baltimore, MD). […] Assays of slc26a9-mediated anion exchange were done by initially recording YFP fluorescence prior to addition of 100 µL of NaI-substituted PBS to test wells, with the initial rate of Cl^-/I^- exchange deduced from fluorescence intensity by single exponential regression. […]

[2] = target: T2, PAT-1 (slc26a6) (Mus musculus, UniProt Q8CIW6); test: Selectivity: slc26a6 Cl-/I- exchange in HEK cells; format: cell-based, murine; conditions: 10 µM
T2 construct: full-length slc26a6 was subcloned into pLVX-YFP-T2A-Puro as an EcoRI to XbaI fragment; host or cells: HEK293 cells infected with lentivirus, puromycin selected
T2 sequence (Q8CIW6 1-758): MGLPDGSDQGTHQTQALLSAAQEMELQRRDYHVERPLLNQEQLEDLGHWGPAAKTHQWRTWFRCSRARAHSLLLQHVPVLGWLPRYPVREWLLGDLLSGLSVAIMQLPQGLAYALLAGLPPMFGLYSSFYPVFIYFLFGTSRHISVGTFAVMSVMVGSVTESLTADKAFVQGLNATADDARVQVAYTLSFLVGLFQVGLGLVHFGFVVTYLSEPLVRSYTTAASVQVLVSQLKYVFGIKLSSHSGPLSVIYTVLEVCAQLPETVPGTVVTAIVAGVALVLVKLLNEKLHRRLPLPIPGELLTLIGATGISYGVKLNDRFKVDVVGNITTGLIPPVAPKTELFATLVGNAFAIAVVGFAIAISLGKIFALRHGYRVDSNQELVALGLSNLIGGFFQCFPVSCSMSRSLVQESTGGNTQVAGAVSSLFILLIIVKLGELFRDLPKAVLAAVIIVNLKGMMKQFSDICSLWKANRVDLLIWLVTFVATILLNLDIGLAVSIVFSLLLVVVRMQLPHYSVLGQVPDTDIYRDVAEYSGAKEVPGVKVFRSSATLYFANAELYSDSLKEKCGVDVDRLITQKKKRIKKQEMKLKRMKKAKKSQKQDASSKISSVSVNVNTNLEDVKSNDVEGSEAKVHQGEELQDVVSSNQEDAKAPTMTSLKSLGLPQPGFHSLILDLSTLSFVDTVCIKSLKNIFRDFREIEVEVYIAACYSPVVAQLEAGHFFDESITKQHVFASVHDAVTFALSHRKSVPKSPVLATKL

Cc1c(CC(=O)O)c(=O)oc2c(C)c(OCc3cccc(Br)c3)ccc12 [Compound A1]
effect on Cl-/I- exchange activity of pendrin (slc26a4) [1]: did not alter; also recorded: did not inhibit; also recorded: differences not significant | effect on Cl-/I- exchange activity of PAT-1 (slc26a6) [2]: did not alter; also recorded: did not inhibit; also recorded: differences not significant
